Experimental data: article PMC6151459, “Targeting PDE10A GAF Domain with Small Molecules: A Way for Allosteric Modulation with Anti-Inflammatory Effects” (Molecules : A Journal of Synthetic Chemistry and Natural …, 2017)

Experiments:
[1] = molecular target: T1, human recombinant PDE10A2 (Homo sapiens, UniProt Q9Y233); assay: Radiometric phosphodiesterase inhibition assay (SPA, [3H]cAMP); format: biochemical; settings: for IC50: recombinant human full-length PDE10A; for inhibition at 10 µM: fixed compound concentration of 10 µM, read-out: percentage of inhibition of PDE10A
T1 construct: These compounds were tested against recombinant human full-length isoenzyme PDE10A; purchased Calbiochem 524739
Procedure: The methodology used for measuring human recombinant PDE10A2 activity was based in a Scintillation Proximity Assay (SPA) from Perkin Elmer (TRKQ7090).
After the incubation time, 50 µL of a solution of SPA-beads (approximately 1 mg per well) were added to each well and the plate was shaken for 1 h at room temperature. Finally, beads were settled for 30 min and radioactivity was detected in a Microbeta Trilux reader (Perkin Elmer, Shelton, CT, USA).
IC50 values were calculated by non-linear regression fitting using the GraphPad Prism. Data (radioactivity vs. log concentration) was fitted to a sigmoidal dose-response equation: Y = Bottom + (Top-Bottom)/(1 + 10^[…]), where Bottom and Top were the minimum and maximal inhibition for PDE, respectively, IC50 was the concentration of the compound that inhibited the PDE activity in a 50%, and n was the slope of the concentration-response curve.

Raw 264.7 cells = assay: Inhibition of nitrite production in LPS-stimulated murine macrophages (Griess reaction); format: cell-based; settings: inhibitors 10 μM, 1 h pretreatment, LPS 10 μg mL−1, 24 h, versus LPS-treated cells
Text: Finally, to explore the anti-inflammatory potential of the new allosteric PDE10A inhibitors here described, a cell-based assay was used. We have determined differences in nitrite production of Raw 264.7 cells after they were damaged with bacterial lipopolysaccharide (LPS) and treated with selected inhibitors. First, the effect of the compounds on cell viability was examined at various concentrations showing […] significant cytotoxic effect in the present experiments (data not shown).
Figure 4 Raw 264.7 cells were incubated for 24 h with lipopolysaccharide (LPS; 10 μg mL^−1) in the absence or presence of various Phosphodiesterase (PDE) inhibitors (10 μM), and the production of nitrite was evaluated by the Griess reaction. Cells were pretreated with inhibitors for 1 h before lipopolysaccharide (LPS) stimulation. Values represent the mean ± SD from two independent experiments. *: p < 0.05; **: p < 0.01 versus LPS-treated cells.
The content of nitrite, one of the end products of NO oxidation, was monitored by a procedure based on the diazotidation of nitrite by sulfanilic acid (Griess reaction). […] The absorbance (520 nm) of the mixture was measured on a microplate reader. The concentration of nitrite was calculated with the linear equation derived from the standard curve generated by known concentrations of sodium nitrite.

PDE10A = system: PDE10A; set-up: method as in PMID 21705115; settings: reference compound; cited from earlier work

T1 sequence (Q9Y233 267-1055): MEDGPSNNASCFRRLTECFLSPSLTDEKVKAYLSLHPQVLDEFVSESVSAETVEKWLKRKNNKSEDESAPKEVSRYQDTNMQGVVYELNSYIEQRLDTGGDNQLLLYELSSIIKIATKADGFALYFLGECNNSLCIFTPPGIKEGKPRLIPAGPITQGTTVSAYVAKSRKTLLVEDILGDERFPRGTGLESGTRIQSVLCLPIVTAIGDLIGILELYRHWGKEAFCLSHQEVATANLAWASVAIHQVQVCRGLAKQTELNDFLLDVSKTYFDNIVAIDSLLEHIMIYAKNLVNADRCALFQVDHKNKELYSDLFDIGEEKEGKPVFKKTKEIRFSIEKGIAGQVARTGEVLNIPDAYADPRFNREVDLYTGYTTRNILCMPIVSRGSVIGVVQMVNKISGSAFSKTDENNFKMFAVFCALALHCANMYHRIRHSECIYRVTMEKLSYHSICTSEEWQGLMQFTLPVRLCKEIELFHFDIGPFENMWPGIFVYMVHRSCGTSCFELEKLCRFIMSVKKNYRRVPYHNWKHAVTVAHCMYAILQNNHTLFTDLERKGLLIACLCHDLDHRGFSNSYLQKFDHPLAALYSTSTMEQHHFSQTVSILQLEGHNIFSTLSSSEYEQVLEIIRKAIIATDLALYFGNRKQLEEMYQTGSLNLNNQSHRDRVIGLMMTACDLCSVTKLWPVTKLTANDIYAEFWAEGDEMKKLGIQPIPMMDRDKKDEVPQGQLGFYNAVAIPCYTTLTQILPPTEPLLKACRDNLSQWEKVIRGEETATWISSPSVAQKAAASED

| IC50 [1] [µM] | inhibition at 10 µM [1] [%] | SMILES | also measured |
| --- | --- | --- | --- |
| 4.6 |  | CC(=O)C1=C(c2ccc(C#N)cc2)C(=O)NC1=O [Compound 1] |  |
|  | 40 | O=C(Cc1ccccc1)Sc1ncnc2[nH]cnc12 [Compound 2] |  |
|  | 7 | O=C(O)COC(=O)CNC(=O)c1ccccc1 [Compound 3] |  |
| 10.2 |  | CC(=O)C1=C(c2c[nH]c3ccccc23)C(=O)NC1=O [Compound 4] | nitrite production (Raw 264.7 cells): significantly decreased |
| 1.8 |  | COc1ccc(-c2n/c(=N/Cc3cccnc3)sn2-c2ccccc2)cc1 [Compound 5] | nitrite production (Raw 264.7 cells): significantly decreased |
| 8.2 |  | CC(=O)C1=C(c2c[nH]c3ncccc23)C(=O)NC1=O [Compound 7] |  |
|  | 3 | Cc1ccc(-n2nc(C(C)(C)C)cc2N)cc1 [Compound 9] |  |
|  | 2 | CC(=O)NNC(=O)c1c(O)n(C)c2ccccc2c1=O [Compound 10] |  |
|  | 44 | O=C(Cc1cccc(Cl)c1)Nc1nc2ccccc2s1 [Compound 11] |  |
|  | 3 | O=S1(=O)N=C(O)c2cc(-c3ccccc3)sc2N1 [Compound 12] |  |
|  | 15 | O=Cc1nc(-c2ccc(Cl)cc2)ns1 [Compound 13] |  |
|  | 24 | CC(=O)C1=C(c2c(C)[nH]c3ccccc23)C(=O)NC1=O [Compound 14] |  |
| 6.5 |  | CC(=O)C1=C(c2cn(C)c3ncccc23)C(=O)NC1=O [Compound 15] |  |
| 2.4 |  | O=C(CBr)C1=C(c2c[nH]c3ccccc23)C(=O)NC1=O [Compound 16] |  |
| 8.2 |  | CC(=O)C1=C(c2cn(C)c3ccccc23)C(=O)NC1=O [Compound 17] |  |
| 2.9 |  | Cn1cc(C2=C(C(=O)CBr)C(=O)NC2=O)c2ccccc21 [Compound 18] |  |
|  |  | COc1ccc(Cc2nccc3cc(OC)c(OC)cc23)cc1OC [Papaverine] | IC50 (PDE10A): 0.019 µM |
